What was measured:
Format in all cases: in vivo, SD rats
[1] = tested on: pulmonary arterial hypertension (PAH) models; assay: PAH model, echocardiography; conditions: MCT PAH rats
Excerpt: (§1) To induce PAH in 7-week-old SD rats (Oriental Bio), 60 mpk of MCT (monocrotaline) were subcutaneously injected. Thereafter, the rats were divided into four groups (tested with five animals in each group), and were administrated with 1mpk of Mock human IgG (Thermo Fisher Scientific, negative control), 1mpk of N3 IgG antibody, 10mpk of N3 IgG antibody, and 25 mpk of sildenafil (positive control) for 3 weeks. All antibodies were i.v. injected twice a week and sildenafil was orally administered every day.

[2] = PAH model, body weight and abnormal signs; conditions: MCT + Sildenafil
Excerpt: as §1

[3] = tested on: pulmonary arterial hypertension (PAH) models; assay: PAH model, blood flow and blood pressure measurement; conditions: MCT + Sildenafil 25 mpk, orally every day, 3 weeks
Excerpt: as §1
After three weeks, the rats were anesthetized with isoflurane, and blood flow and pressure were measured using an MPVS Cardiovascular Pressure and Volume system (model name: MPVS Ultra, manufacturer: Millar Instruments). The right ventricular end-systolic pressure (RVESP), right ventricular end-diastolic pressure, left ventricular end-systolic pressure, left ventricular end-diastolic pressure were measured using an exclusive catheter (Mikro-Tip rat pressure catheter, manufacturer: Millar Instruments). The cardiac output was measured using a perivascular blood flow probe (Transonic Flow probes, manufacturer: […]), and experimental method thereof was performed by the same method as disclosed in the following literature: Pacher P, Nagayama T, Mukhopadhyay P, Batkai S, Kass DA. Measurement of cardiac function using pressure-volume conductance catheter technique in mice and rats. Nat Protoc 2008; 3 (9): 1422-34.

CCCc1nn(C)c2c(=O)[nH]c(-c3cc(S(=O)(=O)N4CCN(C)CC4)ccc3OCC)nc12 [Sildenafil, sildenafil]
D-shaped left ventricle indicating pressure overload in the right ventricle [1]: three animals | body weight, Absolute change [2]: 104.1 ± 26.4 g | body weight, Relative change [2]: 49.8 ± 10.5% | CO [3]: 49.6 ± 17.7 mL/min | LVEDP [3]: 3.6 ± 2.3 mmHg | LVESP [3]: 83.2 ± 4.7 mmHg | RVEDP [3]: 2.6 ± 1.3 mmHg | RVESP [3]: 48.4 ± 9.6 mmHg

Reference: patent US12679903B2, “Antibody for specifically binding to lysyl-tRNA synthetase N-terminal domain exposed to extracellular membrane” (Zymedi Co., Ltd., priority 2018, dated 2026)
